What follows are compounds tested against T1, human NaV1.6 (hNaV1.6) (Homo sapiens, UniProt Q9UQD0) (assay: Modulation of late sodium current (INaL) at hNaV1.6, PatchXpress electrophysiology). Details: HEK293, HEK-293 cells expressing recombinant human NaV1.6, late current evoked by 300 nM ATX-II, read-out: NaV 1.6 Assay Data (percent inhibition of INaL at hNaV1.6).
T1 construct: expressed in transfected cells; host or cells: HEK-293 (G418 selection)
Format: cell-based
Protocol: Functional characterization of exemplary compounds to modulate INaL expressed by the NaV1.6 voltage-gated sodium channel was accomplished using the PatchXpress™ high throughput electrophysiology platform (Molecular Devices, Sunnyvale, CA). HEK-293 cells expressing recombinant, human NaV1.6 (hNaV1.6) were grown in DMEM/high-glucose Dulbecco's modified, 10% FBS, 2 mM sodium pyruvate, 10 mM HEPES and 400 μg/mL G418. Cells were grown to 50%-80% confluency prior to harvesting. Trypsinized cells were washed, allowed to recover for 1 hour and then resuspended in extracellular recording solution at a concentration of 1×10^6 cells/ml. The onboard liquid handling facility of the PatchXpress was used for dispensing cells and applying test compounds. NaV late currents were evoked by the application of 300 nM ATX-II. INaL was evoked by depolarizing pulses to 0 mV for 200 ms from a non-inactivating holding potential (e.g., −120 mV) at a frequency of 0.1 Hz. INaL amplitude and stability were determined by analyzing the mean current amplitude over the final 20 ms of the test pulse. Following steady state block with exemplary compounds (e.g., as described herein), a Na+ free solution containing an impermeant cation (e.g., Choline or NDMG) was added to confirm the identity of the sodium current. Percent steady-state inhibition of INaL was calculated as: […], where INaL_compound and INaL_control represent INaL recorded in the presence or absence of compound, respectively.
Results from this assay relating to percent inhibition of INaL at hNaV1.6 (measured using a procedure similar to described above but using HEK-293 cells expressing recombinant, human NaV 1.6 (h NaV 1.6) at 1 μM are summarized in Table 1 below. In this table, “A” indicates inhibition of less than 30%; “B” indicates inhibition of between about 30% to about 70%; and “C” indicates inhibition of greater than 70%. “N/A” indicates not available.

T1 sequence (Q9UQD0 whole entry): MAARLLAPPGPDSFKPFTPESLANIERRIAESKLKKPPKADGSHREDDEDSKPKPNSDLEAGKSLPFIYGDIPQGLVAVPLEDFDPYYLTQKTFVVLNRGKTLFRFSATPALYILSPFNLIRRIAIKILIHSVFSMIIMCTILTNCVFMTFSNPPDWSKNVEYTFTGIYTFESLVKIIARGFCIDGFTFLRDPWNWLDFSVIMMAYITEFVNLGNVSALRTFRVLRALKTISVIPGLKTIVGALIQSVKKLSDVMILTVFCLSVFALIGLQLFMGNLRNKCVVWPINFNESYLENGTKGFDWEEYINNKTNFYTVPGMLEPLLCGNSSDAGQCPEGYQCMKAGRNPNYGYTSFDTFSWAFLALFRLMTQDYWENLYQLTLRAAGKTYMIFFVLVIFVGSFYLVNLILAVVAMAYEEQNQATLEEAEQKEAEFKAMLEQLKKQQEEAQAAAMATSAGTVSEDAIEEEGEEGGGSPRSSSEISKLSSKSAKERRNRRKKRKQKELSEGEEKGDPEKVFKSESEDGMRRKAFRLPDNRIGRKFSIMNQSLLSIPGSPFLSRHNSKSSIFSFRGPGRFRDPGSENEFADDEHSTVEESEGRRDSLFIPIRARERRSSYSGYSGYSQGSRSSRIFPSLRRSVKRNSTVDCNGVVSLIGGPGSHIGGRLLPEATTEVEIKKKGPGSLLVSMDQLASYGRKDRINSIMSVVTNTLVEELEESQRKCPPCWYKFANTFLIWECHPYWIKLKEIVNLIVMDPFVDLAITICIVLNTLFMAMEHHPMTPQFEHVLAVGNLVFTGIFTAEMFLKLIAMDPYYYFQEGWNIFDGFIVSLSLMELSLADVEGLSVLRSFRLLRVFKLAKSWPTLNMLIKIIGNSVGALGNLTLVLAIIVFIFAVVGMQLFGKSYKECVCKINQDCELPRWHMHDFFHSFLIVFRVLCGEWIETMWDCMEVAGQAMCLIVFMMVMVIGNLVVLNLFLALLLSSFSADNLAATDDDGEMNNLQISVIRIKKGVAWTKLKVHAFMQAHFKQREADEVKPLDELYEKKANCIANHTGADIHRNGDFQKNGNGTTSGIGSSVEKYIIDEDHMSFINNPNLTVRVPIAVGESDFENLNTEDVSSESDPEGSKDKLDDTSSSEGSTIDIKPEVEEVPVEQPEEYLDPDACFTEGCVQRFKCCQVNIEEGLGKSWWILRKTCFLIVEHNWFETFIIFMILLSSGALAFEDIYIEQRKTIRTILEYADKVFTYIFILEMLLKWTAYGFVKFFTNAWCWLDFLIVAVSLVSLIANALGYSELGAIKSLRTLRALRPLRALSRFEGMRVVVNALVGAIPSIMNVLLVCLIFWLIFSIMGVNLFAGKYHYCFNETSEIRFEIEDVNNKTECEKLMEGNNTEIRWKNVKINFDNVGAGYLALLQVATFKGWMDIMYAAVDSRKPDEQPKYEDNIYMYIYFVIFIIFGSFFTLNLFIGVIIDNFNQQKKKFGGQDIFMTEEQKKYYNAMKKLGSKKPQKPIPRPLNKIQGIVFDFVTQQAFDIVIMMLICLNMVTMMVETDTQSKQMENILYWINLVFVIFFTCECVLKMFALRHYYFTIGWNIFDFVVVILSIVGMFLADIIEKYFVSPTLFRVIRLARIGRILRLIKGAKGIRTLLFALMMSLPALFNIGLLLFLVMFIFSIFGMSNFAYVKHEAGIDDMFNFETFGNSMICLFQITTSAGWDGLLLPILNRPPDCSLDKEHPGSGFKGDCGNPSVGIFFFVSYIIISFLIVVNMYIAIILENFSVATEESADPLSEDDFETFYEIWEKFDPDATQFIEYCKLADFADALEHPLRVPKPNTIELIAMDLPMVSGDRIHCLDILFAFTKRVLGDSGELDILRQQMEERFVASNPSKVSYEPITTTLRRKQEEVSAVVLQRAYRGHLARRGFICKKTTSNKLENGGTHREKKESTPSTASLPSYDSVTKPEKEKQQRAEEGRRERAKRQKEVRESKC

`COC(F)(F)c1nnc2cnc(-c3ccc(O[C@H](C4CC4)C(F)(F)F)nc3)cn12` (single isomer, unassigned) [Compound 5] and `COC(F)(F)c1nnc2cnc(-c3ccc(O[C@@H](C4CC4)C(F)(F)F)nc3)cn12` (single isomer, unassigned) [Compound 6] cannot be ordered by inhibition at 1 µM: over 70% for the first, over 70% for the second.

`COC(F)(F)c1nnc2cnc(-c3ccc(O[C@H](C)C(F)F)nc3)cn12` (single isomer, unassigned) [Compound 9] and `COC(F)(F)c1nnc2cnc(-c3ccc(O[C@@H](C)C(F)F)nc3)cn12` (single isomer, unassigned) [Compound 10] cannot be ordered by inhibition at 1 µM: over 70% for the first, over 70% for the second.

`CC[C@@H](Oc1ccc(-c2cn3c(C(F)(F)OC)nnc3cn2)cn1)C(F)(F)F` (single isomer, unassigned) [Compound 13] and `CC[C@H](Oc1ccc(-c2cn3c(C(F)(F)OC)nnc3cn2)cn1)C(F)(F)F` (single isomer, unassigned) [Compound 14] cannot be ordered by inhibition at 1 µM: over 70% for the first, over 70% for the second.

First: COC(F)(F)c1nnc2cnc(-c3ccc(O[C@H](C)C(C)(F)F)nc3)cn12 (single isomer, unassigned) [Compound 15]
Second: COC(F)(F)c1nnc2cnc(-c3ccc(O[C@@H](C)C(C)(F)F)nc3)cn12 (single isomer, unassigned) [Compound 16]
The inhibition at 1 µM of the first is higher: over 70% for the first, 30 to 70% for the second.

`CCOC(F)(F)c1nnc2cnc(-c3ccc(O[C@H](CC)C(F)(F)F)nc3)cn12` (single isomer, unassigned) [Compound 19] and `CCOC(F)(F)c1nnc2cnc(-c3ccc(O[C@@H](CC)C(F)(F)F)nc3)cn12` (single isomer, unassigned) [Compound 20] cannot be ordered by inhibition at 1 µM: over 70% for the first, over 70% for the second.

`CCOC(F)(F)c1nnc2cnc(-c3ccc(O[C@H](C)C(F)F)nc3)cn12` (single isomer, unassigned) [Compound 23] and `CCOC(F)(F)c1nnc2cnc(-c3ccc(O[C@@H](C)C(F)F)nc3)cn12` (single isomer, unassigned) [Compound 24] cannot be ordered by inhibition at 1 µM: over 70% for the first, over 70% for the second.

Compared with `CCOC(F)(F)c1nnc2cnc(-c3ccc(O[C@H](C(C)C)C(F)(F)F)nc3)cn12` (single isomer, unassigned) [Compound 25], `CCOC(F)(F)c1nnc2cnc(-c3ccc(O[C@@H](C(C)C)C(F)(F)F)nc3)cn12` (single isomer, unassigned) [Compound 26] is lower in inhibition at 1 µM: over 70% for the first, 30 to 70% for the second.

`COC(F)(F)c1nnc2cnc(-c3ccc(O[C@@H](C(C)C)C(F)(F)F)nc3)cn12` (single isomer, unassigned) [Compound 27] and `COC(F)(F)c1nnc2cnc(-c3ccc(O[C@H](C(C)C)C(F)(F)F)nc3)cn12` (single isomer, unassigned) [Compound 28] cannot be ordered by inhibition at 1 µM: over 70% for the first, over 70% for the second.

`CCOC(F)(F)c1nnc2cnc(-c3ccc(O[C@H](C4CC4)C(F)(F)F)nc3)cn12` (single isomer, unassigned) [Compound 29] and `CCOC(F)(F)c1nnc2cnc(-c3ccc(O[C@@H](C4CC4)C(F)(F)F)nc3)cn12` (single isomer, unassigned) [Compound 30] cannot be ordered by inhibition at 1 µM: over 70% for the first, over 70% for the second.

`C[C@@H](Oc1ccc(-c2cn3c(C(F)(F)OC4CC4)nnc3cn2)cn1)C(F)(F)F` [Compound 1, (R)-3-(cyclopropoxydifluoromethyl)-6-(6-((1,1,1-trifluoropropan-2-yl)oxy)pyridin-3-yl)-[1,2,4]triazolo[4,3-a]pyrazine] and `C[C@H](Oc1ccc(-c2cn3c(C(F)(F)OC4CC4)nnc3cn2)cn1)C(F)(F)F` [Compound 2, (S)-3-(cyclopropoxydifluoromethyl)-6-(6-((1,1,1-trifluoropropan-2-yl)oxy)pyridine-3-yl)-[1,2,4]triazolo[4,3-a]pyrazine] cannot be ordered by inhibition at 1 µM: over 70% for the first, over 70% for the second.

`CCOC(F)(F)c1nnc2cnc(-c3ccc(O[C@@H](C)C(F)(F)F)nc3)cn12` [Compound 3, (S)-3-(ethoxydifluoromethyl)-6-(6-((1,1,1-trifluoropropan-2-yl)oxy)pyridin-3-yl)-[1,2,4]triazolo[4,3-a]pyrazine] and `CCCOC(F)(F)c1nnc2cnc(-c3ccc(O[C@H](C)C(F)(F)F)nc3)cn12` [Compound 17, 3-[difluoro(propoxy)methyl]-6-[6-[(1R)-2,2,2-trifluoro-1-methyl-ethoxy]-3-pyridyl]-[1,2,4]triazolo[4,3-a]pyrazine] cannot be ordered by inhibition at 1 µM: over 70% for the first, over 70% for the second.

`CCOC(F)(F)c1nnc2cnc(-c3ccc(OC(C4CC4)C(F)(F)F)nc3)cn12` (stereo not drawn) [Compound 4, 6-(6-(1-cyclopropyl-2,2,2-trifluoroethoxy)pyridin-3-yl)-3-(ethoxydifluoromethyl)-[1,2,4]triazolo[4,3-a]pyrazine] and `CCCOC(F)(F)c1nnc2cnc(-c3ccc(O[C@@H](C)C(F)(F)F)nc3)cn12` [Compound 21, (S)-3-(difluoro(propoxy)methyl)-6-(6-((1,1,1-trifluoropropan-2-yl)oxy)pyridin-3-yl)-[1,2,4]triazolo[4,3-a]pyrazine] cannot be ordered by inhibition at 1 µM: over 70% for the first, over 70% for the second.

`COC(F)(F)c1nnc2cnc(-c3ccc(OC(C(C)C)C(F)(F)F)nc3)cn12` (stereo not drawn) [Compound 7, 3-(difluoro(methoxy)methyl)-6-(6-((1,1,1-trifluoro-3-methylbutan-2-yl)oxy)pyridin-3-yl)-[1,2,4]triazolo[4,3-a]pyrazine] and `CC(C)OC(F)(F)c1nnc2cnc(-c3ccc(O[C@H](C)C(F)(F)F)nc3)cn12` [Compound 18, 3-[difluoro(isopropoxy)methyl]-6-[6-[(1R)-2,2,2-trifluoro-1-methyl-ethoxy]-3-pyridyl]-[1,2,4]triazolo[4,3-a]pyrazine] cannot be ordered by inhibition at 1 µM: over 70% for the first, over 70% for the second.

`CCCOC(F)(F)c1nnc2cnc(-c3ccc(OCC(F)(F)F)nc3)cn12` [Compound 8, 3-[difluoro(propoxy)methyl]-6-[6-(2,2,2-trifluoroethoxy)-3-pyridyl]-[1,2,4]triazolo[4,3-a]pyrazine] and `CC(C)OC(F)(F)c1nnc2cnc(-c3ccc(OCC(F)(F)F)nc3)cn12` [Compound 11, 3-[difluoro(isopropoxy)methyl]-6-[6-(2,2,2-trifluoroethoxy)-3-pyridyl]-[1,2,4]triazolo[4,3-a]pyrazine] cannot be ordered by inhibition at 1 µM: over 70% for the first, over 70% for the second.

`COC(F)(F)c1nnc2cnc(-c3ccc(OC4CC(F)(F)C4(F)F)nc3)cn12` (stereo not drawn) [Compound 12, 3-(difluoro(methoxy)methyl)-6-(6-(2,2,3,3-tetrafluorocyclobutoxy)pyridin-3-yl)-[1,2,4]triazolo[4,3-a]pyrazine] and `CC(C)OC(F)(F)c1nnc2cnc(-c3ccc(O[C@@H](C)C(F)(F)F)nc3)cn12` [Compound 22, (S)-3-(difluoro(isopropoxy)methyl)-6-(6-((1,1,1-trifluoropropan-2-yl)oxy)pyridin-3-yl)-[1,2,4]triazolo[4,3-a]pyrazine] cannot be ordered by inhibition at 1 µM: over 70% for the first, over 70% for the second.

— patent publication US12655151B2, “Ion channel modulators” (Praxis Precision Medicines, Inc., priority 2019, dated 2026)
